The test has as its target T1, GlyR α2 (native α2 subunit-containing glycine receptors of striatal medium spiny neurons) (Mus musculus, UniProt Q7TNC8).
T1 construct: gene Glra2; native full-length receptor in adult dorsal striatal slices; α2 homomer or α2β heteromer (Glrb) not resolved by authors; no glycine current in Glra2 knockout MSNs
Kind of test: whole-cell patch clamp, evoked chloride current, fast perfusion, Hill fit. As to conditions: read-out: STP MSNs (n = 6); agonist; STP MSNs (Drd2-EGFP) in acute striatal slices, native receptor; -80 mV, 32°C; with gabazine, CNQX, DHβE, L-689,560, TTX; authors call it a higher boundary (diffusion in slice). Format: cell-based. The source says:
whole-cell patch clamp, evoked chloride current, fast perfusion, Hill fit on GlyR α2 (native α2 subunit-containing glycine receptors of striatal medium spiny neurons)

T1 sequence (Q7TNC8 28-452): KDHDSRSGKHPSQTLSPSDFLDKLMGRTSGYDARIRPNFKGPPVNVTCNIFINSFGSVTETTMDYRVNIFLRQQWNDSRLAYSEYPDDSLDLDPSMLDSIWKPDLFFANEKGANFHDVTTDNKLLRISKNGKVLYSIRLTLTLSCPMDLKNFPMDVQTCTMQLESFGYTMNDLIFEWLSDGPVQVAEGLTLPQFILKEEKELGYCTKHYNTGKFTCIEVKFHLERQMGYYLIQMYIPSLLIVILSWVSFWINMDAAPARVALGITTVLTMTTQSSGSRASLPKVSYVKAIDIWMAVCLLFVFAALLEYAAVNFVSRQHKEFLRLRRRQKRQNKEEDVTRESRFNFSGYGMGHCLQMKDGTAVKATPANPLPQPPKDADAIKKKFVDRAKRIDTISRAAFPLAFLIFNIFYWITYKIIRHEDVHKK

Turning to `NCC(=O)O` [glycine], the EC50 was 317 ± 25.4 µM.
